Results on one compound are retold here after patent US10485772B2, “Compositions for modulating cancer stem cells and uses therefor” (University of Canberra, priority 2014, dated 2019).

The subject of the experiment is MDA-MB 231 cells. In words: FACS analysis of CD44high/CD24low CSC-like subpopulation in Basal/metastatic model. Type of experiment: cell-based, human. To be noted: bisindolylmaleimide-I 4 μM. How it is done:
Cells from each well/flask were harvested by means of trypsin treatment followed by two washes with PBS. Washed cells then re-suspended in an antibody cocktail consisting anti-CD44-APC, anti-CD24-PE antibodies (details in Table 5) and Hoechst 33258 dye (final dilution of 1:1000) (Invitrogen, Carlsbad, Calif.) in 1% FCS-PBS solution. Cells re-suspended in antibody cocktail were incubated for 20 minutes at 4° C. Cells were next washed twice with PBS and re-suspended in 1% FCS-PBS solution (volume based on cell number) and kept on ice until analyzed by FACS. Forward scatter (FSC) and side scatter parameters were selected with FITC fluorochrome excited by 488 nm argonion laser, PE fluorochrome excited by 488 nm and Hoechst fluorochrome excited by 350 nm helium-cadmium UV laser.
Flow Cytometry data was produced using either BD FACS LSR Flow Cytometer (Becton Dickinson Biosciences) or BD FACS Aria™ II Flow Cytometer (Becton Dickinson Biosciences) and analyzed using the data acquisition software CellQuest Pro (Becton Dickinson Biosciences) and FlowJo (Tree Star Inc., Ashland, Oreg.) software at the MCRF facility, JCSMR, ANU, Canberra, Australia. Single colour controls were used to set compensation parameters. Isotype controls were used for all corresponding primary antibodies in each experiment.
The adherent human mammary adenocarcinoma MCF-7 and MDA-MB-231 cells were cultured in low glucose DMEM (Gibco) and both supplemented with 10% FCS, 2 mM L-glutamine and 0.1% PSN antibiotics. Cells were stimulated with 0.65 ng/ml of phorbol 12-myristate 13-acetate (PMA) (Sigma-Aldrich) or 20 ng/ml of TGF-β (R&D systems) for the times indicated. For Bisindolylmaleimide-I (Calbiochem) or PKC-θ peptide inhibitor (Calbiochem) studies, cells were pre-treated with 1 μM or 30 μM of inhibitor respectively for 1 h prior to stimulation in MCF-7 cells. In case of MDA-MB-231, cells were treated with 4 μM or 30 μM Bisindolylmaleimide-I or PKC-θ peptide inhibitor respectively.
To separate CSC from non-CSC (NCSC), florescence activated cell sorting (FACS) was performed on single-cell suspensions that were stained with anti-CD44-APC (559942, BD Biosciences) and anti-CD24-PE antibodies (555428, BD Biosciences) along with Hoechst 33258 to monitor cell viability. As used throughout this work, CSC are defined by minority CD44^high/CD24^low, whereas NCSC are defined by rest of the cell populations.
(In flow cytometry, cells or beads pass a laser one at a time.)

Structures are written as SMILES.

In the case of `CN(C)CCCn1cc(C2=C(c3c[nH]c4ccccc34)C(=O)NC2=O)c2ccccc21` [bisindolylmaleimide-I], the “CD44 high CD24 low-CSC-like subpopulation by FACS” value was “inhibits CD44 high CD24 low-CSC-like subpopulation”. The “CD44 high CD24 low-CSC-like subpopulation by FACS” value (listed as Broad spectrum PKC pathway inhibitor) was “inhibition of EMT and CSC formation”.
